The values that follow come from patent publication US5844102A, “Glycohydrolase inhibitors, their preparation and use thereof” (University of Maryland Baltimore County, priority 1994, dated 1998).

SMILES strings stand for the structures. Where two headings read alike, the source gives them in different places.

The target in data set [1] is T1, isomaltase (bakers yeast) (Saccharomyces cerevisiae, UniProt P53051).
T1 construct: purchased Sigma Chemical Company
Kind of data set: isomaltase inhibition, p-nitrophenol glucopyranoside substrate. The format is biochemical. The protocol:
(§1) The enzymes α-glucosidase (yeast), β-glucosidase (almonds), isomaltase (bakers yeast) and α-mannosidase (jackbean) were purchased from Sigma Chemical Company. Glucoamylase was isolated by the present inventors by expressing the gene from Aspergillus awamori in yeast, by methods well known in the art. Enzyme assays were performed by using p-nitrophenol -α (or β)-glucopyranosides as substrate at 37° C. in phosphate buffer (0.05M, pH 6.8) for α (β)-glucosidase and isomaltase, and p-nitrophenol-α-mannopyranoside as substrate at 25° C. in citrate (0.05M, pH 4.5) buffer for α-mannosidase. Glucoamylase was assayed using maltose as substrate at 50° C. in sodium acetate buffer (0.05M, pH 4.5).
(§2) Michaelis-Menten constant, Km, was calculated using software Grafit (Erithacus Software Ltd.). Ki was calculated by plotting K^appm vs. [Inhibitor]. FIG. 2(a) represents a plot of K^appm vs. [Inhibitor], wherein the inhibitor is the monosaccharide sugar analog isofagomin, obtained for five different glycosidases. FIG. 2(b) represents a similar plot of K^appm vs. [Inhibitor], wherein the inhibitor is the disaccharide sugar analog of formula II, obtained for five different glycosidases.

The target in another data set is T2, α-mannosidase (jackbean) (Canavalia ensiformis, UniProt C0HJB3).
T2 construct: purchased Sigma Chemical Company
T2 sequence (C0HJB3 1-562 limits assumed): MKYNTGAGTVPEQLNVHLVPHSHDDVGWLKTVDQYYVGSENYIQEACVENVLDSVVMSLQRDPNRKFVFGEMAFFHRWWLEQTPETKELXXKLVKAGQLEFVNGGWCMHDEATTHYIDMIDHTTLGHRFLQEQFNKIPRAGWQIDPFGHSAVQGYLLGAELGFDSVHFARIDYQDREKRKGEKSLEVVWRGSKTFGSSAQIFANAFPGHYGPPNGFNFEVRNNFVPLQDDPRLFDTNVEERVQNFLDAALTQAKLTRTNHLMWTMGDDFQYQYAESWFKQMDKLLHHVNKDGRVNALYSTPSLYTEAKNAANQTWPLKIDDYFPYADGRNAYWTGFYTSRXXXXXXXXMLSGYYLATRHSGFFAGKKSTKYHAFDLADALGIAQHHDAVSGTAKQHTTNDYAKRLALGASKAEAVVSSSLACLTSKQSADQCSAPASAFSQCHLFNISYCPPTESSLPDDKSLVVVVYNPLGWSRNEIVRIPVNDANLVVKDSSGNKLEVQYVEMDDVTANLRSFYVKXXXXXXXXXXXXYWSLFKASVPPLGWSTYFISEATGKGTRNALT
T2 sequence (C0HJB3 563-981 limits assumed): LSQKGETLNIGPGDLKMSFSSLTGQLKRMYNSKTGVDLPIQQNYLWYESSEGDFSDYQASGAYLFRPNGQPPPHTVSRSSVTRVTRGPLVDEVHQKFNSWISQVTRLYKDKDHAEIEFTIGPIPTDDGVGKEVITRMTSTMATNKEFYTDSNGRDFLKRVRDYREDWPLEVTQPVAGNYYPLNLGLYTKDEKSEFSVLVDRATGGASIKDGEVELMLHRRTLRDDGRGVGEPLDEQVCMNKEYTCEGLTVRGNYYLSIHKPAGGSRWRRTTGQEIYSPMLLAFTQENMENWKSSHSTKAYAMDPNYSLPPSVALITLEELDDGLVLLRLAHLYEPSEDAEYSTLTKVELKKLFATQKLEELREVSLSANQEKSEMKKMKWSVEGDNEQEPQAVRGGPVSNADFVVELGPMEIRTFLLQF
Kind of data set: α-mannosidase inhibition, p-nitrophenol-α-mannopyranoside substrate. The format is biochemical. The following applies: 25° C., citrate buffer 0.05M, pH 4.5; read-out: Ki (inhibition constant), α-Mannosidase. On the procedure: as §1
(§3) Michaelis-Menten constant, Km, was calculated using software Grafit (Erithacus Software Ltd.). Ki was calculated by plotting K^appm vs. [Inhibitor]. FIG. 2(a) represents a plot of K^appm vs. [Inhibitor], wherein the inhibitor is the monosaccharide sugar analog isofagomin, obtained for five different glycosidases.

The conditions of data set [2]: in vivo; cited from earlier work.
A further data set addresses T3, lysosomal α-glucosidase (Rattus norvegicus, UniProt Q6P7A9).
T3 construct: host or cells: liver (in vivo)
The following applies: cited from earlier work.

The target of a further data set is β-glucosidase (almonds). Nature of the data set: β-glucosidase inhibition, p-nitrophenol-β-glucopyranoside substrate. The format is biochemical. The following applies: for Ki: 37° C., phosphate buffer 0.05M, pH 6.8, read-out: Ki (inhibition constant), β-Glucosidase; for inhibition of β-glucosidase, in words: hydrochloride. On the procedure: as §1, §2
The next data set addresses T4, Glucoamylase (Aspergillus awamori, UniProt P69327).
T4 construct: made in house; host or cells: yeast
Nature of the data set: glucoamylase inhibition, maltose substrate. Type of data set: biochemical. The protocol: as §1, §3

For another data set, the target named is T5, α-glucosidase (yeast) (Saccharomyces cerevisiae, UniProt P53341).
T5 construct: purchased Sigma Chemical Company
Kind of data set: α-glucosidase inhibition, p-nitrophenol-α-glucopyranoside substrate. The format is biochemical. The conditions noted are these: 37° C., phosphate buffer 0.05M, pH 6.8; read-out: Ki (inhibition constant), α-Glucosidase. On the procedure:
as §1, §3

Data set [3] relates to cellulase degradation of wood. Nature of the data set: wood treatment, cellulase degradation. The conditions noted are these: approximately 10 mg/kg of wood per day, several months of treatment. On the procedure: A wood treatment composition containing approximately 10 mg/kg of wood per day of isofagomin is administered to a piece of wood. After several months of treatment, the piece of wood is analyzed.

The subject of data set [4] is glycohydrolase degradation of crop. Kind of data set: agricultural crop treatment, glycohydrolase degradation. The conditions noted are these: approximately 10 mg/kg of crop per day, several months of treatment. The protocol:
A composition for treating agricultural crops containing approximately 10 mg/kg of crop per day of isofagomin is administered to a crop. After several months of treatment, the crop is analyzed.

Setting [5] is: maltose substrate, 50° C., sodium acetate buffer 0.05M, pH 4.5, read-out: Ki (inhibition constant), Glucoamylase.
[6] abbreviates: 37° C., phosphate buffer 0.05M, pH 6.8, read-out: Ki (inhibition constant), Isomaltase.

T1 sequence (P53051 whole entry): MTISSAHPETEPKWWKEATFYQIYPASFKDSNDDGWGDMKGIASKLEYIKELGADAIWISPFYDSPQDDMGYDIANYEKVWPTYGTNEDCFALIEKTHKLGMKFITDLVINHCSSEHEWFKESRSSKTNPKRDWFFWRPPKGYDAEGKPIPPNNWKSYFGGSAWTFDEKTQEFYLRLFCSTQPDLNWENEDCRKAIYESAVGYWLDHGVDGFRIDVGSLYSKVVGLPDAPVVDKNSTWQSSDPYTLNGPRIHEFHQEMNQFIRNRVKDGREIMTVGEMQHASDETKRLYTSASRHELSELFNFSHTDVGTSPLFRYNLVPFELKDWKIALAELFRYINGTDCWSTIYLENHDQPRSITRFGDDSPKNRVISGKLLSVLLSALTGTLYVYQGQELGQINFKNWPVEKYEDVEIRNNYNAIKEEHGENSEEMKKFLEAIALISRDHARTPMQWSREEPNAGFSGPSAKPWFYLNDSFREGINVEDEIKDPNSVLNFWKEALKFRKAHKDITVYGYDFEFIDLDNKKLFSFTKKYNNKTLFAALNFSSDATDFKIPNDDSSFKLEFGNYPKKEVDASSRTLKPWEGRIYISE
T4 sequence (P69327 25-640): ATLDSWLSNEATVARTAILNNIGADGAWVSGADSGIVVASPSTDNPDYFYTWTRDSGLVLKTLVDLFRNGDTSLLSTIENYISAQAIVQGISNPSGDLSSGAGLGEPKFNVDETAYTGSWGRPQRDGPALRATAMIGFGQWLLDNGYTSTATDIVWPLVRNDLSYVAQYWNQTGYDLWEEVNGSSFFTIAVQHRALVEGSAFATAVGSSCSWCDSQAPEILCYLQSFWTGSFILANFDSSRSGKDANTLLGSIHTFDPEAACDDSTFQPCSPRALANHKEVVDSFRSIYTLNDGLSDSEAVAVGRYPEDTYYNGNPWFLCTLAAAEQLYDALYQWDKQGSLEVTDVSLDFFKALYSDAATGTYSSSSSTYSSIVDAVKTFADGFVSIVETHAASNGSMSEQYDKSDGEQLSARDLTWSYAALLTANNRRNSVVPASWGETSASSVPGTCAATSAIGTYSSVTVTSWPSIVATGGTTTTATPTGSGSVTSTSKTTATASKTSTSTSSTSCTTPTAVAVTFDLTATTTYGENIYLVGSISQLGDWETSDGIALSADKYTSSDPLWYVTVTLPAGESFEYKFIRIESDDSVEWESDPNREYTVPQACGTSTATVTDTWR
T5 sequence (P53341 whole entry): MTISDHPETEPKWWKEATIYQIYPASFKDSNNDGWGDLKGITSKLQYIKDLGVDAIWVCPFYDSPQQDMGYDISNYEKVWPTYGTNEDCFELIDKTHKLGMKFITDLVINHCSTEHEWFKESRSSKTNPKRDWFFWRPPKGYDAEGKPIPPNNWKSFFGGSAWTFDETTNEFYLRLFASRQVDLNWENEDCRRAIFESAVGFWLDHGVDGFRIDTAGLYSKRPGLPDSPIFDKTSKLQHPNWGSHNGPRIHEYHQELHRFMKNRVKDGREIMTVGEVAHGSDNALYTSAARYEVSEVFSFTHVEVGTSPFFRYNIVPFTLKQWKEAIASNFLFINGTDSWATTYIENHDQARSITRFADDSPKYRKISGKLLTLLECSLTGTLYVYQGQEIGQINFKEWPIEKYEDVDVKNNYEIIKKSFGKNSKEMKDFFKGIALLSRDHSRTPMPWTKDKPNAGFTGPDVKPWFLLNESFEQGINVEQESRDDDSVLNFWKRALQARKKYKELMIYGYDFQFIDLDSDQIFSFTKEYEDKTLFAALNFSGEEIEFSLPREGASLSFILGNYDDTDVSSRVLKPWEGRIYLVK
T3 sequence (Q6P7A9 70-953): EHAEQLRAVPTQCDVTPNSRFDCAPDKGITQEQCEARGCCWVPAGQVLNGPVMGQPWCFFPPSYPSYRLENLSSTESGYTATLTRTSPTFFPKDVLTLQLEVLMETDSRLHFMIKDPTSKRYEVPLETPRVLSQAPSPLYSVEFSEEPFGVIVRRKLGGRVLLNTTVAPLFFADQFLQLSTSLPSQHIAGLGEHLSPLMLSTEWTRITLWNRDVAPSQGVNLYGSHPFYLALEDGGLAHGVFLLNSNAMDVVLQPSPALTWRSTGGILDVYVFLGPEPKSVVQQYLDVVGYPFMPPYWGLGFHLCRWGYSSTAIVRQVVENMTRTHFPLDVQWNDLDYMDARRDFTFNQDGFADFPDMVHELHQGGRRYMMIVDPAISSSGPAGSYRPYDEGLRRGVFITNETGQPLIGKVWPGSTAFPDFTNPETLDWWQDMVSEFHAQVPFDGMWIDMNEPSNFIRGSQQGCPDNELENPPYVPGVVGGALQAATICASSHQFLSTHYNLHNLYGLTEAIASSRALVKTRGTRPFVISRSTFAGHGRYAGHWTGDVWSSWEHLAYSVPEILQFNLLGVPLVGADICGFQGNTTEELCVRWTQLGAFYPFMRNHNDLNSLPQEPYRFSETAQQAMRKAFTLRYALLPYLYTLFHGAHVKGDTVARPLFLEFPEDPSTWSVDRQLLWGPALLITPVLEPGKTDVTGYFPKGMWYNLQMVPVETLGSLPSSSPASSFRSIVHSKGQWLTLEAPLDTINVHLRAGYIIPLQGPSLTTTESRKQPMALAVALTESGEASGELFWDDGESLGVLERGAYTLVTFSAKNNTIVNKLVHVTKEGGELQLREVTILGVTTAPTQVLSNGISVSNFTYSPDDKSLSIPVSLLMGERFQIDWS

By Ki is commonly meant the equilibrium dissociation constant of an inhibitor or competing ligand from its target. Regarding `C[C@H]1O[C@H](O[C@H]2[C@H](O)[C@@H](O)[C@@H](O[C@H]3[C@H](O)[C@@H](O)C(O)O[C@@H]3CO)O[C@@H]2CO)[C@H](O)[C@@H](O)[C@@H]1N[C@H]1C=C(CO)[C@@H](O)[C@H](O)[C@H]1O` (stereo partly shown) [Acarbose, acarbose, reference compound], the Ki in data set [1] was greater than 100 µM; at α-mannosidase (jackbean) it was 7600 µM.
Consider `O[C@H]1[C@H](O)[C@@H](O)CN2CC[C@H](O)[C@H]12` [Castanospermine], for which the “minimum effective dose required to reduce the glycemic response to sucrose” value in data set [2] is 1 mg/kg. Also, the “accumulation of lysosomal glycogen” value at lysosomal α-glucosidase (at the minimum effective dose (1 mg/kg)) is “Accumulation of lysosomal glycogen has been found”.
Consider `OC[C@H]1NC[C@@H](O)[C@@H](O)[C@@H]1O` [Deoxymannojirimycin, reference compound], for which the results for the Ki (at β-glucosidase (almonds); at Glucoamylase (setting [5]); in [1]) were […], 66 µM and 49.3 µM, respectively.
Regarding `OC[C@H]1NC[C@H](O)[C@@H](O)[C@@H]1O` [Deoxynojirimycin, reference compound], the Ki at β-glucosidase (almonds) was […]; on Glucoamylase (setting [5]), 9.8 µM; in data set [1], 11.2 µM.
`Cl.OC[C@H]1CNC[C@@H](O)[C@@H]1O` [MB, (3R,4R,5R)-3,4-dihydroxy-5-hydroxymethyl-piperidine hydrochloride]: the Ki at α-glucosidase (yeast) came to 85.9 µM; at β-glucosidase (almonds), 0.11 µM; at Glucoamylase (setting [5]) it was 3.7 µM; in data set [1] (setting [6]), 7.2 µM; on α-mannosidase (jackbean) it was 775 µM. Besides, the “mode of inhibition of β-glucosidase (Lineweaver-Burk plot)” value in the data set on β-glucosidase (almonds) (FIG. 1(a), three inhibitor concentrations) was “competitive inhibition”. Moreover, the entries for the “inhibition of β-glucosidase, in words” value in the data set on β-glucosidase (almonds) and in the data set with β-glucosidase (almonds) (listed as monosaccharide analog) were “surprisingly strong inhibitor” and “particularly strong inhibitor”, respectively. For the same compound, the “cellulase degradation of treated wood” value in data set [3] is “No cellulase degradation is detected”. In addition, the “glycohydrolase degradation of treated crop” value in [4] is recorded as “No glycohydrolase degradation is detected”.
For `CO[C@H]1O[C@H](CN2C[C@H](O)[C@@H](O)[C@H](O)[C@H]2CO)[C@@H](O)[C@H](O)[C@H]1O` [MDL, 1,5-dideoxy-1,5-[(6-deoxy-1-O-methyl-6-α,D-glucopyranosyl)imino]-D-glucitol], at lysosomal α-glucosidase (dose 10-fold higher than required to reduce the glycemic response to sucrose), the “effect on liver lysosomal α-glucosidase activity or glycogen accumulation” value is recorded as “did not affect”.
For the compound `CO[C@H]1O[C@H](CCN2C[C@H](CO)[C@@H](O)[C@H](O)C2)[C@@H](O)[C@H](O)[C@H]1O` [TMJ, Methyl 6,7-dideoxy-7-[(3R,4R,5R)-3,4-dihydroxy-5-hydroxymethyl-piperidinyl]-α-D-gluco-heptopyranoside], the Ki at α-glucosidase (yeast) was determined as 58.8 µM; at Glucoamylase it was 0.063 µM; in [1] (setting [6]) it was 103 µM; at α-mannosidase (jackbean), 1230 µM.
